The values below come from ChEMBL document CHEMBL1150009, “Quinine analogs as non-peptide calcitonin gene-related peptide (CGRP) receptor antagonists” (Bioorg Med Chem Lett, 1997).

pIC50: −log10 of the molar value. A value given as a limit tells only on which side of the number the result lay.

Test [1] has as its target T1, Calcitonin gene-related peptide type 1 receptor (Homo sapiens, UniProt O60894+Q16602). Kind of test: Displacement of [125I]hCGRP human Calcitonin gene-related peptide type receptor expressed in SK-N-MC neuroblastoma cell membranes.
Test [2] relates to SK-N-MC. Kind of test: In vitro inhibition of CGRP-mediated cAMP production in SK-N-MC cells. Format: functional, cell-based. To be noted: Homo sapiens.
Test [3] concerns the target G-protein coupled receptor 182 (Homo sapiens) (UniProt O15218). The test can be described thus: Compound (up to 30 uM) was tested in vitro for percent effectiveness for ligand binding to Adrenomedullin receptor.
For test [4], the target named is T2, Type-1 angiotensin II receptor A (Rattus norvegicus) (UniProt P25095).
T2 sequence (whole entry): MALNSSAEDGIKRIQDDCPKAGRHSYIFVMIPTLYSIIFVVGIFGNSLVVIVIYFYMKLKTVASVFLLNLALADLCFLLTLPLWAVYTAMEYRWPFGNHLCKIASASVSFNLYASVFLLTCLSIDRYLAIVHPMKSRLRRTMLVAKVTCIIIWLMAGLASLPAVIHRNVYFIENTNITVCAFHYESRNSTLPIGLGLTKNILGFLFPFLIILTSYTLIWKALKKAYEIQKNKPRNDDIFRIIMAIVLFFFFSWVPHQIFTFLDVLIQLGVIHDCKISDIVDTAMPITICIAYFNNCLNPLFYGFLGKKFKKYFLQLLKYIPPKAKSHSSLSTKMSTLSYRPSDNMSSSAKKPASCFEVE
The test can be described thus: Compound (up to 30 uM) was tested in vitro for percent effectiveness for ligand binding to Angiotensin II receptor.

Test [5] concerns the target T1, Calcitonin gene-related peptide type 1 receptor. Kind of test: Compound was tested in vitro for its binding affinity towards recombinant human Calcitonin gene-related peptide type receptor (membranes of HEK293 cells) using [125I]hCGRP as radioligand. Format: cell membranes.
Test [6] in a line: Inhibitory concentration in vitro using porcine lung membrane (to identify non-peptide antagonist of the CGRP receptor). Format: functional, cell membranes, Sus scrofa.
Test [7] has as its target T3, Endothelin receptor type B (Homo sapiens) (UniProt P24530).
T3 sequence (whole entry): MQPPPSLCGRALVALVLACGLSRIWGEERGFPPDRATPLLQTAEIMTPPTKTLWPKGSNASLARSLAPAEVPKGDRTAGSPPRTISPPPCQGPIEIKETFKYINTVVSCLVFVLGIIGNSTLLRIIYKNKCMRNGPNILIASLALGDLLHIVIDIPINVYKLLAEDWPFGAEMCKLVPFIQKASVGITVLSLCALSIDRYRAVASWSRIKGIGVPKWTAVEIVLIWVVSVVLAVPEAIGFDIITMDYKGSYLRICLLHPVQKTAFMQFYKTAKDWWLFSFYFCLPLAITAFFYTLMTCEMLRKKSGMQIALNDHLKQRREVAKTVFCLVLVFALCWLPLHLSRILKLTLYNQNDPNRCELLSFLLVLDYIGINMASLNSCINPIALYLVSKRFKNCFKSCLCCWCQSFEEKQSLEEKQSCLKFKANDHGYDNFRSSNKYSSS
Kind of test: Compound (up to 30 uM) was tested in vitro for percent effectiveness for ligand binding to ETB receptors.

The target of test [8] is T4, Endothelin-1 receptor (Homo sapiens) (UniProt P25101).
T4 sequence (whole entry): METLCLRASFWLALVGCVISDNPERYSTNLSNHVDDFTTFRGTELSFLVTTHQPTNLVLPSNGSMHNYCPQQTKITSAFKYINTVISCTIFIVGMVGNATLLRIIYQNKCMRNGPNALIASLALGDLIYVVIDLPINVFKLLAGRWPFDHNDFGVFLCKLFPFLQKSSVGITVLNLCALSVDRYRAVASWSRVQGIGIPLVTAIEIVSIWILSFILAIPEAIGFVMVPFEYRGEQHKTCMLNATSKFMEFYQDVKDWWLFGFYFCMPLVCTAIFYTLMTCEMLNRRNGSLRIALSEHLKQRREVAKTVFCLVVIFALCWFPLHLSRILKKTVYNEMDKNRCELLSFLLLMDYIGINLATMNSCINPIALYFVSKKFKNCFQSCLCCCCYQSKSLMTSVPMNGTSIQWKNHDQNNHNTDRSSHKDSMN
Kind of test: Compound (up to 30 uM) was tested in vitro for percent effectiveness for ligand binding to ETA receptors.

For test [9], the target named is T5, Vasoactive intestinal peptide receptor (Gallus gallus) (UniProt A5A0U0).
T5 sequence (whole entry): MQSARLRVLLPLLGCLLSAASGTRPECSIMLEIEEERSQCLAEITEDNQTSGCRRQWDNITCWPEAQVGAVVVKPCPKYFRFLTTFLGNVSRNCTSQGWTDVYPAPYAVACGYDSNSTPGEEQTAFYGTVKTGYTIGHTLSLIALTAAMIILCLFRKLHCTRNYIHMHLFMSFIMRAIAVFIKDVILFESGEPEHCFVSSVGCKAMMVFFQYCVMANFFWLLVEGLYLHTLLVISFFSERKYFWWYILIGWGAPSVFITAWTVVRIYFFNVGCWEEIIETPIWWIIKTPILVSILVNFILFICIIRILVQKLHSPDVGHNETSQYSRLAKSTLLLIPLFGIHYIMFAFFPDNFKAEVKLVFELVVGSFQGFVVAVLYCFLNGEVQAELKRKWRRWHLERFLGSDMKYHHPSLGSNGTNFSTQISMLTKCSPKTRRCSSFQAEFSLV
Kind of test: Compound (up to 30 uM) was tested in vitro for percent effectiveness for ligand binding to Vasoactive intestinal peptide receptor.

Test [10] can be described thus: Compound (up to 30 uM) was tested in vitro for percent effectiveness for ligand binding to GLP-1 receptors.

T1 sequence (Q16602 whole entry, one chain of several): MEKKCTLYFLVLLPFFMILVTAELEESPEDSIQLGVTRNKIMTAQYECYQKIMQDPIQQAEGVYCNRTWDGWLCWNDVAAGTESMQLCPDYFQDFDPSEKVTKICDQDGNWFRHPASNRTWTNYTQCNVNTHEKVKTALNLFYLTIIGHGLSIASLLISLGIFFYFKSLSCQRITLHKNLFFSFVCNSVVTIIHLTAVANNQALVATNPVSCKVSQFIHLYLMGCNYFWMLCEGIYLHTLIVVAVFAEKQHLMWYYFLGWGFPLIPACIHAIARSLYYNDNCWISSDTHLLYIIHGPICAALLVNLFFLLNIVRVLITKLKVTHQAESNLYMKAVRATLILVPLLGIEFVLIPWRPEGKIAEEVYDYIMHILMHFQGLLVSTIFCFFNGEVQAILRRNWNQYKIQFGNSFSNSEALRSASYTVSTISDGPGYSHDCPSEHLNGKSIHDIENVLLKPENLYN
Sequence of G-protein coupled receptor 182 (Homo sapiens) (O15218 whole entry): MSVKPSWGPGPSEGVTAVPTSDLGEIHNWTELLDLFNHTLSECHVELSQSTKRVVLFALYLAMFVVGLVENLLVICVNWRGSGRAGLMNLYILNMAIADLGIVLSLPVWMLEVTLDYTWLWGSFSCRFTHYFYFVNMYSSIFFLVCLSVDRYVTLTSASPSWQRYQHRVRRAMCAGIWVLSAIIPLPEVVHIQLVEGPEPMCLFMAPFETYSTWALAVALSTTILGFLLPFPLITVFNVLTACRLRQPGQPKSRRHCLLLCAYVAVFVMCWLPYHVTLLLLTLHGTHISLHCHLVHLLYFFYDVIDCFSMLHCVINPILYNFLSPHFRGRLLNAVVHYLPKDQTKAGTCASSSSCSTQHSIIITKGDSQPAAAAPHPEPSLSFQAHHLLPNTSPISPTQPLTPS

`CCC1CN2CCC1CC2[C@H](O)c1cc(-c2ccc3c(c2)OCO3)nc2ccc(OC)cc12` (stereo partly specified): the negative-log IC50 (pIC50) in test [1] is 4.13; in [2], 4.22.
On the same counts, the results for `CCC1CN2CCC1CC2[C@H](O)c1cc(-c2cccc(C(F)(F)F)c2)nc2ccc(OC)cc12` (stereo partly specified) are 5.00 and 4.70.
The corresponding values for `CCC1CN2CCC1CC2[C@H](O)c1cc(-c2ccc(C(F)(F)F)cc2)nc2ccc(OC)cc12` (stereo partly specified) are 5.28 and 4.62.
On the same counts, the results for `CCC1CN2CCC1CC2[C@H](O)c1cc(-c2ccccc2)nc2ccc(OC)cc12` (stereo partly specified) are 4.02 and 4.19.
Take `CCC1CN2CCC1CC2[C@H](O)c1cc(-c2ccc(F)c(Cl)c2)nc2ccc(OC)cc12` (stereo partly specified): the negative-log IC50 (pIC50) in test [1] is 4.77; in [2], 4.85.
On the same counts, the results for `CCC1CN2CCC1CC2[C@H](O)c1cc(-c2ccc(Cl)cc2Cl)nc2ccc(OC)cc12` (stereo partly specified) are 4.43 and 4.55.
The corresponding values for `CCC1CN2CCC1CC2[C@H](O)c1cc(-c2cccc(N)c2)nc2ccc(OC)cc12` (stereo partly specified) are less than 4.00 and less than 4.00.
Regarding `CCC1CN2CCC1CC2[C@H](O)c1cc(-c2ccc(Cl)cc2)nc2ccc(OC)cc12` (stereo partly specified), the inhibition in test [3], in [4], in test [7], in [8], in test [9] and in [10] was less than 20% throughout. The pIC50 in test [5] is 5.26; in test [1] it was 5.23; in test [6], 5.22; in [2], 4.59.
For the molecule `CCC1CN2CCC1CC2[C@H](O)c1cc(-c2cccc([N+](=O)[O-])c2)nc2ccc(OC)cc12` (stereo partly specified), the pIC50 in [1] was 4.39.
Turning to `CCC1CN2CCC1CC2[C@H](O)c1cc(-c2cccc3ccccc23)nc2ccc(OC)cc12` (stereo partly specified), the pIC50 was 4.48 in test [1] and 4.64 in test [2].
As for `CCC1CN2CCC1CC2[C@H](O)c1cc(-c2ccc(OC)cc2)nc2ccc(OC)cc12` (stereo partly specified), the pIC50 in test [1] was less than 4.00.
For `CCC1CN2CCC1CC2[C@H](O)c1cc(-c2ccc(Oc3ccccc3)cc2)nc2ccc(OC)cc12` (stereo partly specified), the figures for the negative logarithm of the IC50 (pIC50) in [1] and in test [2] were 4.92 and 4.66, respectively.
With `CCC1CN2CCC1CC2[C@H](O)c1cc(-c2ccsc2)nc2ccc(OC)cc12` (stereo partly specified), the pIC50 in [1] was less than 4.00.
